According to patent US20260000657A1, “ANTI-ANGIOGENIC THERAPY AS TREATMENT FOR BENIGN UTERINE DISORDERS” (STICHTING AMSTERDAM UMC, priority 2022, published 2026):
Each block holds one compound with its values, some of them ahead of it.

Legend:
[1] = test system: tamoxifen-induced adenomyosis in CD-1 mice; test: Oral axitinib treatment in tamoxifen-induced adenomyosis mouse model; assay type: in vivo
Procedure: After validation of the model, this model was used to test treatment with anti-vascular endothelial growth factor receptor 2 (VEGFR-2) tyrosine kinase inhibitor axitinib (A-1107; LC Laboratories). To induce adenomyosis, 108 mice received neonatal tamoxifen treatment and were randomly allocated to receive treatment or placebo. On day 42, anti-angiogenesis treatment commenced by oral axitinib treatment or placebo. Axitinib was dissolved in 0.5% sodium carboxymethylcellulose (CMC) at a dose of 25 mg/kg body weight (dose I) or at a dose of 3 mg/kg (dose II). All animals received treatment by daily oral gavage at 5 μl/g bodyweight with axitinib (dose I/II) or placebo (CMC) for a time period of three weeks. During this period, all animals had daily animal welfare observations, and were weighed at a minimum of three times per week. The experimental groups are depicted in FIG. 1.
The uteri were cut in half, one horn (right/left horn randomized) was fixed in 4% formaldehyde at room temperature for 48 hours.
Uterine tissue was embedded in paraffin and sliced into transverse oriented sections of 5 μm, with three sections of one uterine horn on one microscope slide. […] Paraffin-embedded sections were dewaxed in xylene, rehydrated in 100%, 96%, and 70% ethanol, and washed in PBS (pH 7.4). […] After washing in PBS, aspecific binding was blocked by 3% BSA/PBS for one hour. After adding primary antibodies diluted in 0.5% BSA/PBS, sections were incubated overnight at 4° C. […] After washing with PBS, horseradish peroxidase (HRP)—streptavidin (strep) was added (cat. no. ab6734; 1:200; Dako Cytomation) diluted in 0.5% BSA/PBS, for thirty minutes. The sections were then washed in PBS, afterwards 3,3′-Diaminobenzidine (DAB) was added (60 μl DAB; 1 μl 30% H2O2; 1 mL PBS), for eight minutes.

[2] = test system: tamoxifen-induced adenomyosis in a murine model; test: Adenomyosis severity index (grade x affected surface area) in tamoxifen-induced adenomyosis murine model; assay type: in vivo, mice; conditions: dose II 3 mg/kg, post hoc p<0.05
Source text: The adenomyosis severity index in tamoxifen-induced adenomyosis in a murine model has been determined based on the abovementioned results of grade of adenomyosis and adenomyosis-affected surface area. Specifically, the grade of adenomyosis (determined on H&E slides as described above) was multiplied by the adenomyosis-affected surface area (determined on vimentin-stained slides). The adenomyosis severity index is the average of all sections analyzed per uterine horn. The adenomyosis severity index was determined for placebo group (CMC-treated mice) and two axitinib-treated groups (dose II—AX3: axitinib 3 mg/kg; dose I—AX25: axitinib 25 mg/kg).

[3] = test system: angiogenesis-related genes (VEGF-R1, VEGF-R2, VEGF-R3, VEGF-A, VEGF-B, CD31) in mouse uteri; test: Real-time quantitative PCR uterine gene expression profile after axitinib; assay type: in vivo, mice; conditions: RT-PCR
Procedure: To study the efficacy of axitinib treatment at the molecular level, the expression levels of vascular marker CD31 and angiogenic growth factors VEGF-A, VEGF-B, VEGF receptor R1 (VEGF-R1), VEGF-R2, VEGF-R3, placental growth factor PlGF, and collagen were measured. Real-time quantitative PCR was performed in a random selection of uterine specimens exposed to axitinib (dose II, n=7; dose I, n=6) or placebo (CMC, n=7). The expression of each gene was normalized to the household gene cyclophilin A.

[4] = test system: tamoxifen-induced mice model; conditions: from week 16 of age; cited from earlier work
[5] = test system: uterus of mice with tamoxifen-induced adenomyosis
Source text: Sunitinib is another angiogenesis inhibitor and a highly-fluorescent molecule, therefore it will be used as a model drug to microscopically assess uptake and distribution in uterine tissue after termination.
Intra-uterine delivery of a gel containing slow-release Sunitinib in low dose will also be tested as an alternative treatment for oral Axinitib in mice with tamoxifen-induced adenomyosis.

[6] = test system: uterine adenomyosis in SHN mice; conditions: cited from earlier work
CD-1 mice = test: Validation of tamoxifen-induced mouse adenomyosis model
[7] = test system: human adenomyosis lesions xenografted in mice; conditions: administered 14 days after xenografting; cited from earlier work
[8] = dose I 25 mg/kg daily oral gavage three weeks
[9] = dose I 25 mg/kg daily oral gavage three weeks, N = 34
[10] = dose II 3 mg/kg daily oral gavage three weeks
[11] = dose II 3 mg/kg daily oral gavage three weeks, N = 34
[12] = tamoxifen 1 mg/kg oral day 2-5 after birth, six weeks, n = 6
[13] = tamoxifen 1 mg/kg, six weeks, n = 6

Weight end treatment, Mean [1, 9]: 29.9 g | Weight end treatment, Mean ([1]; dose I + II pooled, N = 68): 28.7 g | Weight end treatment, Mean [1, 11]: 28.4 g
Compound: CNC(=O)c1ccccc1Sc1ccc2c(/C=C/c3ccccn3)n[nH]c2c1 [Axitinib, axitinib]
No signs of adenomyosis (% of mice) [1, 8]: 11,8% | Presented with adenomyosis (% of mice) [1, 8]: 88,2% | Adenomyosis No (number of mice) [1, 9]: 4 | Adenomyosis Yes (number of mice) [1, 9]: 30 | Ectopic glands, median ([1]; dose I 25 mg/kg, N = 34): 3.0 | Grade 0 (% of mice) ([1]; dose I 25 mg/kg, N = 34): (14.7%) | Grade 0 (number of mice) ([1]; dose I 25 mg/kg, N = 34): 5 | Grade 1 (% of mice) ([1]; dose I 25 mg/kg, N = 34): (29.4%) | Grade 1 (number of mice) ([1]; dose I 25 mg/kg, N = 34): 10 | Grade 2 (% of mice) ([1]; dose I 25 mg/kg, N = 34): (50.0%) | Grade 2 (number of mice) ([1]; dose I 25 mg/kg, N = 34): 17 | Grade 3 (% of mice) ([1]; dose I 25 mg/kg, N = 34): (5.9%) | Grade 3 (number of mice) ([1]; dose I 25 mg/kg, N = 34): 2 | Ratio thickest myometrium/transverse uterine diameter, median ([1]; dose I 25 mg/kg, N = 34): 0.18 | Ratio thickest myometrium/uterine wall, median ([1]; dose I 25 mg/kg, N = 34): 0.49 | Ratio thinnest myometrium/uterine wall, median ([1]; dose I 25 mg/kg, N = 34): 0.21 | Ratio thinnest/thickest myometrium, median ([1]; dose I 25 mg/kg, N = 34): 0.26 | Spread Diffuse (number of mice) ([1]; dose I 25 mg/kg, N = 34): 18 | Spread Focal (number of mice) ([1]; dose I 25 mg/kg, N = 34): 8 | Spread None (% of mice) ([1]; dose I 25 mg/kg, N = 34): (14.7%) | Spread None (number of mice) ([1]; dose I 25 mg/kg, N = 34): 5 | Adenomyosis No (% of mice) ([1]; dose I + II pooled, N = 68): (14.9%) | Adenomyosis No (number of mice) ([1]; dose I + II pooled, N = 68): 10 | Adenomyosis Yes (% of mice) ([1]; dose I + II pooled, N = 68): (85.1%) | Adenomyosis Yes (number of mice) ([1]; dose I + II pooled, N = 68): 57 | Ectopic areas, Median ([1]; dose I + II pooled, N = 68): 1.3 | Ectopic glands, median ([1]; dose I + II pooled, N = 68): 2.8 | Grade 0/1 (% of mice) ([1]; dose I + II pooled, N = 68): (40.3%) | Grade 0/1 (number of mice) ([1]; dose I + II pooled, N = 68): 27 | Grade 2/3 (% of mice) ([1]; dose I + II pooled, N = 68): (59.7%) | Grade 2/3 (number of mice) ([1]; dose I + II pooled, N = 68): 40 | Spread Diffuse (% of mice) ([1]; dose I + II pooled, N = 68): (54.0%) | Spread Diffuse (number of mice) ([1]; dose I + II pooled, N = 68): 34 | Spread Focal (% of mice) ([1]; dose I + II pooled, N = 68): (30.2%) | Spread Focal (number of mice) ([1]; dose I + II pooled, N = 68): 19 | Spread None (% of mice) ([1]; dose I + II pooled, N = 68): (15.9%) | Spread None (number of mice) ([1]; dose I + II pooled, N = 68): 10 | No signs of adenomyosis (% of mice) [1, 10]: 14,7% | Presented with adenomyosis (% of mice) [1, 10]: 82,4% | Adenomyosis No (number of mice) [1, 11]: 5 | Adenomyosis Yes (number of mice) [1, 11]: 28 | Ectopic glands, median ([1]; dose II 3 mg/kg, N = 34): 2.7 | Grade 0 (% of mice) ([1]; dose II 3 mg/kg, N = 34): (15.2%) | Grade 0 (number of mice) ([1]; dose II 3 mg/kg, N = 34): 5 | Grade 1 (% of mice) ([1]; dose II 3 mg/kg, N = 34): (21.2%) | Grade 1 (number of mice) ([1]; dose II 3 mg/kg, N = 34): 7 | Grade 2 (% of mice) ([1]; dose II 3 mg/kg, N = 34): (57.6%) | Grade 2 (number of mice) ([1]; dose II 3 mg/kg, N = 34): 19 | Grade 3 (% of mice) ([1]; dose II 3 mg/kg, N = 34): (6.1%) | Grade 3 (number of mice) ([1]; dose II 3 mg/kg, N = 34): 2 | Ratio thickest myometrium/transverse uterine diameter, median ([1]; dose II 3 mg/kg, N = 34): 0.18 | Ratio thickest myometrium/uterine wall, median ([1]; dose II 3 mg/kg, N = 34): 0.54 | Ratio thinnest myometrium/uterine wall, median ([1]; dose II 3 mg/kg, N = 34): 0.19 | Ratio thinnest/thickest myometrium, median ([1]; dose II 3 mg/kg, N = 34): 0.23 | Spread Diffuse (number of mice) ([1]; dose II 3 mg/kg, N = 34): 16.4 | Spread Focal (number of mice) ([1]; dose II 3 mg/kg, N = 34): 11 | Spread None (% of mice) ([1]; dose II 3 mg/kg, N = 34): (15.2%) | Spread None (number of mice) ([1]; dose II 3 mg/kg, N = 34): 5 | Odds ratio, incidence of grade 0/1 vs grade 2/3 adenomyosis, axitinib vs CMC-only ([1]; pooled dose I + II vs placebo, p=0,048): 1.33 | Reduction of adenomyosis severity index compared to placebo-treated mice [2]: 48% | Down-regulation of all VEGF receptors (1-3), as well as VEGF-A and VEGF ([3]; dose I axitinib, p<0.05): more than 60% | Decrease of expression of endothelial cell marker CD31 ([3]; dose I axitinib, p=0.06): 85% | Down-regulation of VEGF-R1 expression ([3]; dose II axitinib, p=0.003): 63% | Decrease of expression of endothelial cell marker CD31 ([3]; dose II axitinib, p=0.04): 85%

Compound: O=C(O)/C=C/c1ccc(Cn2ccnc2)cc1 [Ozagrel]
Myometrial infiltration [4]: suppressed myometrial infiltration

Compound: CCN(CC)CCNC(=O)c1c(C)[nH]c(/C=C2\C(=O)Nc3ccc(F)cc32)c1C [Sunitinib]
Uptake in uterine tissue after intra-uterine injection ([5]; 1% and 0.1% of systemic dose, 4 h and 24 h after injection): uptake throughout the myometrium | Toxic effects when delivered locally ([5]; mouse, in vivo): without any toxic effects

Compound: CO[C@@H]1[C@H](OC(=O)NC(=O)CCl)CC[C@]2(CO2)[C@H]1[C@@]1(C)O[C@@H]1CC=C(C)C [TNP-470]
Development of signs of uterine adenomyosis ([6]; treatment from one day after pituitary grafting until week 13): did not develop signs of uterine adenomyosis | Mean surface area of blood vessels in the endometrium, relative to control group ([6]; treatment until week 13): 60.5%

Weight, Median (CD-1 mice; tamoxifen 1 mg/kg oral day 2-5 after birth, sacrificed after six weeks, n = 6): 25.2
Compound: CC/C(=C(\c1ccccc1)c1ccc(OCCN(C)C)cc1)c1ccccc1 [Tamoxifen, tamoxifen]
Fibrosis surrounding the adenomyosis affected areas (CD-1 mice; H&E and PTAH staining, tamoxifen-treated group): No signs of fibrosis | Adenomyosis No (% of mice) (CD-1 mice; [12]): (0%) | Adenomyosis No (number of mice) (CD-1 mice; [12]): 0 | Adenomyosis Yes (% of mice) (CD-1 mice; [12]): (100%) | Adenomyosis Yes (number of mice) (CD-1 mice; [12]): 6 | Adenomyosis Yes (% of mice) (CD-1 mice; tamoxifen 1 mg/kg oral day 2-5 after birth, six weeks, n = 6, listed as tamoxifen): 100% | Ectopic glands, median (CD-1 mice; [13]): 7.5 | Grade 0 (% of mice) (CD-1 mice; [13]): (0%) | Grade 0 (number of mice) (CD-1 mice; [13]): 0 | Grade 1 (% of mice) (CD-1 mice; [13]): (0%) | Grade 1 (number of mice) (CD-1 mice; [13]): 0 | Grade 2 (% of mice) (CD-1 mice; [13]): (100%) | Grade 2 (number of mice) (CD-1 mice; [13]): 6 | Grade 3 (% of mice) (CD-1 mice; [13]): (0%) | Grade 3 (number of mice) (CD-1 mice; [13]): 0 | Grade of adenomyosis developed by all mice (CD-1 mice; [13]): grade 2 | Microvessel density, median, Ectopic endometrium (CD-1 mice; [13]): 4.8 | Microvessel density, median, Endometrium (CD-1 mice; [13]): 5.9 | Microvessel density, median, Myometrium (CD-1 mice; [13]): 3.0 | Ratio thickest myometrium/thickest uterine wall (α-SMA) (CD-1 mice; [13]): 0.43 | Ratio thinnest myometrium/thickest myometrium (α-SMA) (CD-1 mice; [13]): 0.19 | Ratio thinnest myometrium/thinnest uterine wall (α-SMA) (CD-1 mice; [13]): 0.18 | Spread Diffuse (% of mice) (CD-1 mice; [13]): (66.7%) | Spread Diffuse (number of mice) (CD-1 mice; [13]): 4 | Spread Focal (% of mice) (CD-1 mice; [13]): (33.3%) | Spread Focal (number of mice) (CD-1 mice; [13]): 2

Compound: bevacizumab
MVD and the expression of VEGF [7]: decreased
